Laboratory results: US20010051630A1, “Use of hydroxylamine derivatives, and method and preparations for increasing the tolerance of field crops against weather stresses” (priority 1997, published 2001)
Marks after values point to notes of the source that are not given here.

Assays:
[1] = system: green peppers; assay: CSVT, green peppers; format: in vivo, pepper
Description: (§1) In this experiment the tolerance of maize, soybean and pepper seeds treated with the active agent against cold was tested. This test imposed temperature and oxygen deficiency stresses on the seeds and was carried out according to Barla-Szabó and Dolinka CSVT (Complex Stressing Vigour Test). For a single test, two hundred seeds were soaked for 48 hours at 25° C. and another 48 hours at 5° C in 150 ml distilled water containing the active agent in 10 mg/l concentration. Following the 96 hours of soaking, the seeds were further germinated between rolled wet paper for 96 hours at 25° C. There were 25 seeds in each roll, the rolls were placed vertically into containers and covered with a plastic bag in order to reduce evaporation. During the whole procedure the seeds were kept in darkness.
(§2) At the end of the experiment the number of normally developing and ungerminated seeds were recorded. The length of the normal seedlings was measured and the average length of the five longest seedlings was calculated. Seedlings longer than 0.33 times the average length of the five longest seedlings were considered to be of high vigour, and low vigour seedlings were shorter than this length.
Under the circumstances of the CSVT test, they increased the length of the sprouts and the roots along with the proportion of the high vigour seedlings. […]

[2] = system: Mo 17 maize inbred line; assay: Chilling tolerance of maize in a gradient chamber; format: in vivo
Description: The experiment was performed using the Mo 17 maize inbred line. The seeds were coated with a 2% solution of the examined compound dissolved in 2 ml polyvinylalcohol before germination, where the above quantity of solution is applied for 100 seeds. The seeds were germinated for 3 days wrapped in wet filter paper, they were sown and then cultivated in gradient chamber for 6 weeks. In the gradient chamber, the temperature was maintained on a scale between 18 and 12° C., with differences of 1° C. This was followed by a one week regeneration at 23/20° C. temperature.
In the experiment, the length of the plants was measured 16, 31 and 43 days after the sowing, and at the end of the experiment the fresh weight of the plants was measured. The experiment was performed on 4 plants at each temperature and by each treatment.

[3] = system: maize of low chilling tolerance (LT) population; assay: CSVT, maize population of low chilling tolerance (LT); format: in vivo
Description: as §1, §2
(§3) In the case of a further experiment with maize of low chilling tolerance (LT) and high chilling tolerance (HT) populations [Ref: P. Landi, E. Frascaroli, A. Lovato; EUPHYTICA 64 21-29 (1992)], the following positive effects were found (Table 3.).

[4] = system: bean cv. Seaway; assay: Frost tolerance of beans; format: in vivo; details: −2° C. for 8 hours
Description: Seedlings of bean cv. Seaway were cultivated under normal conditions for the first two weeks, then they were treated with 10 mg/liter and 100 mg/liter concentration solutions of the examined active agents 2 and 1 days before the initiation of the frost tolerance experiments. In the experiment, the plants were kept at −2° C. for 8 hours, then grew under normal conditions for I week, and the survival ratio was determined. 4 trays were used for each experiment and 6 seeds were planted in each tray.

[5] = system: HMv09 inbred maize line; assay: CSVT, seeds soaked in active agent, HMv09 maize; format: in vivo; details: seeds soaked in 10 mg/l active agent
Description: as §1, with “darkness. At the end of the experiment the number of normally developing and ungerminated seeds were recorded. The length of the normal seedlings was measured and the average length of the five longest seedlings was calculated. Seedlings longer than 0.33 times the average length of the five longest seedlings were considered to be of high vigour, and low vigour seedlings were shorter than this length.” for “darkness.”

[6] = system: bean plants (cv. Seaway); assay: Drought tolerance of beans, part b (7 days hardening); format: in vivo; details: 7 days without water, 10 mg/liter and 100 mg/liter solution named, table does not say which
Source text: Based on the experiences of our preliminary experiments, the plants were hardened before the application of the active agent by withholding the water for a few days, until the first signs of withering appeared. Then the plants were watered and the active agent was either dissolved in the water, or sprayed to the plants directly. Afterwards, the plants were subjected to different periods of drought according to the given experiment, watered again, and after a week-long regeneration period, the survival ratio was determined.
b) In this experiment, bean plants (cv. Seaway) were hardened for 7 days instead of the 5 days described in Part a. Then a 10 mg/liter and 100 mg/liter concentration solution of the active agent was applied two times a day for two days. Then 7 days without water followed, and after a week-long regeneration period, the results of the experiment were evaluated.

[7] = system: maize of high chilling tolerance (HT) population; assay: CSVT, maize population of high chilling tolerance (HT); format: in vivo
Description: as §1, §2, §3

[8] = system: McCall soybeans; assay: CSVT with PVA-pearled McCall soybeans, relative length; format: in vivo, soybean; details: 2.5 mg in 1 ml 2.5% PVA per 100 seeds
Description: as §1
In a further CSVT experiment also using McCall soybeans, polyvinylalcohol (PVA) was applied for pearling the seeds. The 2.5 mg doses of the active agents were dissolved in 1 ml of 2.5% PVA solution, and this quantity was applied to 100 pieces of seeds. The improvement of the chilling tolerance is observed by the significant elongation of the germ and the roots.

Compound: CC(C)(C)NCC(O)CONC(=O)c1cccc(C(F)(F)F)c1.Cl (stereo not shown) [Compound 1, N-[2-hydroxy-3-(1,1-dimethylethyl-amino)propoxy]-3-trifluoromethyl-benzamide monohydrochloride]
- Ratio of high vigour plants (%) [1]: 47* %
- Length (cm) ([2]; 12° C., 16 days): 5.0 cm
- Length (cm) ([2]; 12° C., 31 days): 7.9 cm
- FW (g), fresh weight ([2]; 12° C., 43 days): 1.2 g
- Length (cm) ([2]; 12° C., 43 days): 18.9 cm
- Length (cm) ([2]; 13° C., 16 days): 6.0 cm
- Length (cm) ([2]; 13° C., 31 days): 10.1 cm
- FW (g), fresh weight ([2]; 13° C., 43 days): 1.0 g
- Length (cm) ([2]; 13° C., 43 days): 16.0 cm
- Length (cm) ([2]; 14° C., 16 days): 7.6 cm
- Length (cm) ([2]; 14° C., 31 days): 15.4 cm
- FW (g), fresh weight ([2]; 14° C., 43 days): 2.7 g
- Length (cm) ([2]; 14° C., 43 days): 25.9 cm
- Length (cm) ([2]; 15° C., 16 days): 10.0 cm
- Length (cm) ([2]; 15° C., 31 days): 17.7 cm
- FW (g), fresh weight ([2]; 15° C., 43 days): 3.6 g
- Length (cm) ([2]; 15° C., 43 days): 28.5 cm
- Length (cm) ([2]; 16° C., 16 days): 15.2 cm
- Length (cm) ([2]; 16° C., 31 days): 24.8 cm
- FW (g), fresh weight ([2]; 16° C., 43 days): 4.5 g
- Length (cm) ([2]; 16° C., 43 days): 32.3 cm
- Length (cm) ([2]; 17° C., 16 days): 17.0 cm
- Length (cm) ([2]; 17° C., 31 days): 27.7 cm
- FW (g), fresh weight ([2]; 17° C., 43 days): 5.5 g
- Length (cm) ([2]; 17° C., 43 days): 36.5 cm
- Length (cm) ([2]; 18° C., 16 days): 13.2 cm
- Length (cm) ([2]; 18° C., 31 days): 28.4 cm
- FW (g), fresh weight ([2]; 18° C., 43 days): 6.0 g
- Length (cm) ([2]; 18° C., 43 days): 37.0 cm
- Ratio of high vigour plants %, LT [3]: 94* %
- Survival (%) ([4]; spraying, 100 mg/l): 40* %
- Survival (%) ([4]; watering, 10 mg/l): 25* %
- Ratio of high vigour plants (%) [5]: 49* %
- Survival (%) [6]: 14* %
- Ratio of high vigour plants %, HT [7]: 98* %
- Relative length (control = 100), germ [8]: 106
- Relative length (control = 100), root [8]: 128
